Data on 13 compounds can be found in US20260327191A1, “GSK3a INHIBITORS AND METHODS OF USE THEREOF” (Blueprint Medicines Corporation, priority 2023, published 2026).

For assay [1], the target named is T1, GSK3B (Homo sapiens, UniProt P49841). The assay can be described thus: In vitro enzymatic activity assay, GSK3β. The class given is biochemical. Set-up: Full length human GSK3α or GSK3B expressed as N-terminal GST fusion proteins; GST (N); purchased Carna Biosciences (Japan); host or cells: baculovirus host. The note with it: 1.0 mM ATP, 1.0 μM peptide substrate, 120 min, 25° C, read-out: Enzyme GSK3β (IC50).

The next assay deals with T2, human GSK3α (Homo sapiens, UniProt P49840).
T2 construct: Full length human GSK3α or GSK3B expressed as N-terminal GST fusion proteins; GST (N); purchased Carna Biosciences (Japan); host or cells: baculovirus host
The assay is described as follows: In vitro enzymatic activity assay, GSK3α. The class given is biochemical. The note with it: 1.0 mM ATP, 1.0 μM peptide substrate, 120 min, 25° C, read-out: Enzyme GSK3α (IC50).

The target in the next assay is T3, GSK3A (Homo sapiens, UniProt P49840).
T3 construct: expressed in transfected cells
The assay is described as follows: NanoBRET cellular target engagement assay, Nanoluc-GSK3A in HEK293 cells. In kind it is cell-based. To be noted: NanoBRET GSK3α IC50, HEK293 cells, tracer K-8, 2 hours, 37° C. (In general: In BRET a luciferase serves as donor, and the signal depends on an acceptor being close.)

Assay [2] concerns the target T1, GSK3B. The assay is described as follows: NanoBRET cellular target engagement assay, Nanoluc-GSK3B in HEK293 cells. The class given is cell-based. Further details: expressed in transfected cells. The note with it: NanoBRET GSK3β IC50, HEK293 cells, tracer K-8, 2 hours, 37° C.

pIC50: −log10 of the molar value.

T1 sequence (P49841 whole entry, the tested form may be a part): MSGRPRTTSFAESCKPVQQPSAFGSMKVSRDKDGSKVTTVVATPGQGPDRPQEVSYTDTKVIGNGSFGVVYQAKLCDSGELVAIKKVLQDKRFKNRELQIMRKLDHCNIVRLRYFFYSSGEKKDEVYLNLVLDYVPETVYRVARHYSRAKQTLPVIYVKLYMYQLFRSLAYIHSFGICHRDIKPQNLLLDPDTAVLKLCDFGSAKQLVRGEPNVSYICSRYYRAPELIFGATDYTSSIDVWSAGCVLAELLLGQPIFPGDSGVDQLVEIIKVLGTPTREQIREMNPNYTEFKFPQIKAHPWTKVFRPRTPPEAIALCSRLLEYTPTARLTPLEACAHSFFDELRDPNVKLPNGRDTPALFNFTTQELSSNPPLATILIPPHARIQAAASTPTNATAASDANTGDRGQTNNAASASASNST
T2 sequence (P49840 whole entry, the tested form may be a part): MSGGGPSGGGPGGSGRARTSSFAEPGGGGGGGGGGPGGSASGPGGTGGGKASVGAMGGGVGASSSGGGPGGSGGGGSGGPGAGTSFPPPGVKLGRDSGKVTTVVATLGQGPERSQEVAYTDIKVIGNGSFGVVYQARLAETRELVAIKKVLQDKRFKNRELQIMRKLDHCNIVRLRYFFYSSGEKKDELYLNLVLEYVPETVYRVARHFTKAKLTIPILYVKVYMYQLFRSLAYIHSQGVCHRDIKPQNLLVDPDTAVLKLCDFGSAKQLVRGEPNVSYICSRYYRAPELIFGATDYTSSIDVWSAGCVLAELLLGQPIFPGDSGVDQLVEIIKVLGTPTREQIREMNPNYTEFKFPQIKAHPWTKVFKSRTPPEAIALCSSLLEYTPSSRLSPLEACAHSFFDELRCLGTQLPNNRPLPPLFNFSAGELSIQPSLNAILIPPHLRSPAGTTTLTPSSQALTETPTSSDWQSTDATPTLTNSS
T3 sequence (P49840 whole entry): as the sequence (P49840 whole entry, the tested form may be a part) above

As usually defined, the pIC50 is −log10 of the IC50, conventionally taken in molar units. Take `CCOc1cc(Cl)c(-n2cnc(N)c(C(=O)Nc3cncc(C(N)C4CC4)c3)c2=O)c(Cl)c1` (single isomer, unassigned) [Example 139, (R)-4-amino-N-(5-(amino(cyclopropyl)methyl)pyridin-3-yl)-1-(2,6-dichloro-4-ethoxyphenyl)-6-oxo-1,6-dihydropyrimidine-5-carboxamide or (S)-4-amino-N-(5-(amino(cyclopropyl)methyl)pyridin-3-yl)-1-(2,6-dichloro-4-ethoxyphenyl)-6-oxo-1,6-dihydropyrimidine-5-carboxamide]: the pIC50 on GSK3B [1] is 6.25; at human GSK3α it was 7.96; on GSK3A, 8.29; against GSK3B [2] it was 6.55.
The corresponding values for `CCOCC(N)c1cncc(NC(=O)c2c(N)ncn(-c3c(Cl)cc(OCC)cc3Cl)c2=O)c1` (single isomer, unassigned) [Example 140, (R)-4-amino-N-(5-(1-amino-2-ethoxyethyl)pyridin-3-yl)-1-(2,6-dichloro-4-ethoxyphenyl)-6-oxo-1,6-dihydropyrimidine-5-carboxamide or (S)-4-amino-N-(5-(1-amino-2-ethoxyethyl)pyridin-3-yl)-1-(2,6-dichloro-4-ethoxyphenyl)-6-oxo-1,6-dihydropyrimidine-5-carboxamide] are 5.91, 7.62, 8.04 and 6.21.
As for `CCOc1cc(Cl)c(-n2cnc(N)c(C(=O)Nc3cncc(C(COC)NC)c3)c2=O)c(Cl)c1` (single isomer, unassigned) [Example 141, (R)-4-amino-1-(2,6-dichloro-4-ethoxyphenyl)-N-(5-(2-methoxy-1-(methylamino)ethyl)pyridin-3-yl)-6-oxo-1,6-dihydropyrimidine-5-carboxamide or (S)-4-amino-1-(2,6-dichloro-4-ethoxyphenyl)-N-(5-(2-methoxy-1-(methylamino)ethyl)pyridin-3-yl)-6-oxo-1,6-dihydropyrimidine-5-carboxamide], the pIC50 on GSK3B [1] was 6.63; on human GSK3α it was 8.39; on GSK3A, 8.54; on GSK3B [2], 6.50.
Consider `CCOc1cc(Cl)c(-n2cnc(N)c(C(=O)Nc3cncc(C(C)N)c3)c2=O)c(Cl)c1` (single isomer, unassigned) [Example 142, (R)-4-amino-N-(5-(1-aminoethyl)pyridin-3-yl)-1-(2,6-dichloro-4-ethoxyphenyl)-6-oxo-1,6-dihydropyrimidine-5-carboxamide or (S)-4-amino-N-(5-(1-aminoethyl)pyridin-3-yl)-1-(2,6-dichloro-4-ethoxyphenyl)-6-oxo-1,6-dihydropyrimidine-5-carboxamide], for which the pIC50 on GSK3B [1] was 6.38; on human GSK3α it was 8.01; at GSK3A it was 8.33; against GSK3B [2], 6.46.
Consider `CCOc1cc(Cl)c(-n2cnc(N)c(C(=O)Nc3cncc(C(N)CC(F)F)c3)c2=O)c(Cl)c1` (single isomer, unassigned) [Example 143, (R)-4-amino-N-(5-(1-amino-3,3-difluoropropyl)pyridin-3-yl)-1-(2,6-dichloro-4-ethoxyphenyl)-6-oxo-1,6-dihydropyrimidine-5-carboxamide or (S)-4-amino-N-(5-(1-amino-3,3-difluoropropyl)pyridin-3-yl)-1-(2,6-dichloro-4-ethoxyphenyl)-6-oxo-1,6-dihydropyrimidine-5-carboxamide], for which the pIC50 at GSK3B [1] was 6.68; on human GSK3α it was 8.31; on GSK3A it was 8.39; against GSK3B [2], 6.55.
The corresponding values for `Cc1cc(CC(F)F)cc(C)c1-n1cnc(N)c(C(=O)Nc2cncc(C(C)N)c2)c1=O` (single isomer, unassigned) [Example 144, (R)-4-amino-N-(5-(1-aminoethyl)pyridin-3-yl)-1-(4-(2,2-difluoroethyl)-2,6-dimethylphenyl)-6-oxo-1,6-dihydropyrimidine-5-carboxamide or (S)-4-amino-N-(5-(1-aminoethyl)pyridin-3-yl)-1-(4-(2,2-difluoroethyl)-2,6-dimethylphenyl)-6-oxo-1,6-dihydropyrimidine-5-carboxamide] are 6.33, 7.96, 8.30 and 6.43.
`Cc1cc(C)c(-n2cnc(N)c(C(=O)Nc3cncc(C4CCCCCN4)c3)c2=O)c(C)c1` (single isomer, unassigned) [Example 146, (R)-4-amino-N-(5-(azepan-2-yl)pyridin-3-yl)-1-mesityl-6-oxo-1,6-dihydropyrimidine-5-carboxamide or (S)-4-amino-N-(5-(azepan-2-yl)pyridin-3-yl)-1-mesityl-6-oxo-1,6-dihydropyrimidine-5-carboxamide]: the pIC50 is 6.45 at GSK3B [1], 8.11 on human GSK3α, 8.43 against GSK3A and 6.47 on GSK3B [2].
`Cc1cc(C)c(-n2cnc(N)c(C(=O)Nc3cncc(C(C)N)c3)c2=O)c(C)c1` (single isomer, unassigned) [Example 147, (R)-4-amino-N-(5-(1-aminoethyl)pyridin-3-yl)-1-mesityl-6-oxo-1,6-dihydropyrimidine-5-carboxamide or (S)-4-amino-N-(5-(1-aminoethyl)pyridin-3-yl)-1-mesityl-6-oxo-1,6-dihydropyrimidine-5-carboxamide]: the negative-log IC50 (pIC50) on GSK3B [1] is 6.41; at human GSK3α, 8.06; against GSK3A, 8.42; at GSK3B [2], 6.45.
Consider `CCc1cc(C)c(-n2cnc(N)c(C(=O)Nc3cncc(C4CCCCCN4)c3)c2=O)c(C)c1` (single isomer, unassigned) [Example 148, (R)-4-amino-N-(5-(azepan-2-yl)pyridin-3-yl)-1-(4-ethyl-2,6-dimethylphenyl)-6-oxo-1,6-dihydropyrimidine-5-carboxamide or (S)-4-amino-N-(5-(azepan-2-yl)pyridin-3-yl)-1-(4-ethyl-2,6-dimethylphenyl)-6-oxo-1,6-dihydropyrimidine-5-carboxamide], for which the pIC50 on GSK3B [1] was 6.50; on human GSK3α it was 8.14; on GSK3A it was 8.37; on GSK3B [2], 6.46.
Take `C#CCC(N)c1cncc(NC(=O)c2c(N)ncn(-c3c(Cl)cc(OCC)cc3Cl)c2=O)c1` (single isomer, unassigned) [Example 150, (R)-4-amino-N-(5-(1-aminobut-3-yn-1-yl)pyridin-3-yl)-1-(2,6-dichloro-4-ethoxyphenyl)-6-oxo-1,6-dihydropyrimidine-5-carboxamide or (S)-4-amino-N-(5-(1-aminobut-3-yn-1-yl)pyridin-3-yl)-1-(2,6-dichloro-4-ethoxyphenyl)-6-oxo-1,6-dihydropyrimidine-5-carboxamide]: the negative-log IC50 (pIC50) on GSK3B [1] was 7.35; at human GSK3α, 8.96; at GSK3A it was 9.00; on GSK3B [2] it was 7.31.
With `C#CCC(N)c1cncc(NC(=O)c2c(N)ncn(-c3c(Cl)cc(OCC)cc3Cl)c2=O)c1` (single isomer, unassigned) [Example 151, (R)-4-amino-N-(5-(1-aminobut-3-yn-1-yl)pyridin-3-yl)-1-(2,6-dichloro-4-ethoxyphenyl)-6-oxo-1,6-dihydropyrimidine-5-carboxamide or (S)-4-amino-N-(5-(1-aminobut-3-yn-1-yl)pyridin-3-yl)-1-(2,6-dichloro-4-ethoxyphenyl)-6-oxo-1,6-dihydropyrimidine-5-carboxamide], the pIC50 on GSK3B [1] was 6.30; at human GSK3α, 7.83; against GSK3A, 8.15; against GSK3B [2] it was 6.39.
On to `CCC(N)c1cncc(NC(=O)c2c(N)ncn(-c3c(Cl)cncc3Cl)c2=O)c1` (single isomer, unassigned) [Example 153, (R)-4-amino-N-(5-(1-aminopropyl)pyridin-3-yl)-1-(3,5-dichloropyridin-4-yl)-6-oxo-1,6-dihydropyrimidine-5-carboxamide or (S)-4-amino-N-(5-(1-aminopropyl)pyridin-3-yl)-1-(3,5-dichloropyridin-4-yl)-6-oxo-1,6-dihydropyrimidine-5-carboxamide], for which the negative logarithm of the IC50 (pIC50) on GSK3B [1] is 6.46; at human GSK3α, 8.11; at GSK3A, 8.19; on GSK3B [2], 6.31.
`Cc1cc(CCF)cc(C)c1-n1cnc(N)c(C(=O)Nc2cncc(C(C)N)c2)c1=O` (single isomer, unassigned) [Example 155, (R)-4-amino-N-(5-(1-aminoethyl)pyridin-3-yl)-1-(4-(2-fluoroethyl)-2,6-dimethylphenyl)-6-oxo-1,6-dihydropyrimidine-5-carboxamide or (S)-4-amino-N-(5-(1-aminoethyl)pyridin-3-yl)-1-(4-(2-fluoroethyl)-2,6-dimethylphenyl)-6-oxo-1,6-dihydropyrimidine-5-carboxamide]: the pIC50 at GSK3B [1] is 6.43; at human GSK3α, 8.00; against GSK3A, 8.43; at GSK3B [2], 6.55.
